Results: patent US9604932B2 (priority 2013, dated 2017)

Legend:
[1] = Incubation of R-107 in rat plasma, relative concentrations by HPLC; type: in vitro ADME; conditions: R-107 4 mM in rat plasma, 37° C.
Procedure: In an in vitro study, 2,2,5,5-tetramethyl-3-(nitrooxymethyl)pyrrolidin-1-yl acetate (R-107) was incubated in mouse or rat plasma at 37° C. at a concentration of 4 mM, and the relative concentrations of this compound as well as of its corresponding hydroxylamine, (1-hydroxy-2,2,5,5-tetramethylpyrrolidin-3-yl) methyl nitrate (R-105), and 3-nitratomethyl-2,2,5,5-tetramethylpyrrolidinyloxy (R-100), were measured by HPLC.

Density of R-107 = type: physicochemical; set-up: unit not given here; conditions: oil
[2] = Conversion of prodrug upon exposure to plasma, biological solutions and tissues; type: in vitro ADME; conditions: stable oil until exposure to plasma
[3] = system: renal ischemia-reperfusion injury; test: Rat model of renal ischemia-reperfusion injury; type: in vivo, Sprague-Dawley rats; conditions: protocol only; 80 mg/kg IV infusion
[4] = system: retinal ischemia-reperfusion injury; test: Murine model of retinal ischemia-reperfusion injury; type: in vivo, C57BL/6 mice; conditions: protocol only; 30 mg/kg/day IP BID
Procedure: In this study, the efficacy of R-107 in subacute murine model of retinal ischemia-reperfusion injury is tested, using male C57BL/6 mice (n=10 per group). Briefly, the anterior chamber of the right eye is cannulated with a 30 gauge needle attached to a line infusing sterile saline. The intraocular pressure (IOP) is raised to 110 mmHg by elevating the saline reservoir. The left eye undergoes sham surgery, in which the needle is inserted into the anterior chamber without elevating IOP. R-107 is injected (30 mg/kg/day IP BID) commencing directly before reperfusion. 2 vehicle controls (normal saline and HPCD) is compared to drug therapy. Treatments are repeated twice daily thereafter until sacrifice. The outcome of these pharmacologic studies is quantitatively assessed by using terminal deoxynucleotidyl transferase dUTP nick end labeling (TUNEL) to measure retinal cell death (after 3 days), confocal imaging to quantify survival of ganglion cell layer neurons (after 7 days), and electroretinogram recordings to measure retinal neuronal function (after 21 days).

[5] = system: myocardial ischemia-reperfusion injury; test: Rat model of myocardial ischemia-reperfusion injury; type: in vivo, Sprague-Dawley rats; conditions: protocol only; 10, 30, 80 mg/kg IV
Procedure: In order to test the efficacy of R-107 in a myocardial ischemia reperfusion injury, male aged Sprague-Dawley rats are dosed with R-107 (0, 10, 30, 80 mg/kg IV) 10 minutes prior to the end of a 30 minutes period of ischemia produced by occlusion of the left anterior descending (LAD) coronary artery. Cardiac function is monitored by a Millar catheter for the determination of heart rate (HR), systolic and diastolic blood pressure (BP), left ventricular (LV) systolic BP, LV end-diastolic BP (LVEDP), ±dP/dt, pressure-volume (PV) loop, and tau (τ). 3 hours post-ischemia, blood and myocardium are analyzed for morphologic, histochemical, and bioanalytical injury. The area of necrosis, as a % of area at risk (AAR), and the extent of the no-reflow zone are quantified.

[6] = system: limb ischemia reperfusion injury (LIRI); test: Minipig model of limb ischemia-reperfusion injury; type: in vivo, minipigs; conditions: protocol only; 10, 30, 80 mg/kg/day TID
Procedure: In this study, the efficacy of R-107 in a limb ischemia reperfusion injury (LIRI) is tested. In a large animal model of acute LIRI (n=6 minipigs per group) induced by an endovascular balloon occlusion of the femoral artery for 6 hours, parenteral R-107 (0, 10, 30, 80 mg/kg/day TID) is initiated 10 minutes before reperfusion via direct arterial infusion, followed by an IV infusion thereafter. At 7, 14, and 21 days after reperfusion, limb perfusion (by Doppler flow) is correlated with nerve conduction velocity (NCV, per electromyography, EMG), and muscle strength (by foot pressure on a walking surface) with simultaneous plasma concentrations of R-107.

[7] = system: erectile dysfunction (ED); test: Rat model of erectile dysfunction; type: in vivo, Sprague-Dawley rats; conditions: protocol only; 80 mg/kg/day BID IV

For `CC(=O)ON1C(C)(C)CC(CO[N+](=O)[O-])C1(C)C` (stereo not shown) [R-107, 2,2,5,5-tetramethyl-3-(nitrooxymethyl)pyrrolidin-1-yl acetate], the “Relative concentration of R-107” value ([1]; 0.1 hrs) was 246, the “Relative concentration of R-107” value ([1]; 1.5 hrs) was 18 and the “Relative concentration of R-107” value ([1]; 20 hrs) was 0. The Density (Density of R-107) was 1.12, the “Stability / conversion upon exposure to plasma” value [2] was “readily converted to its corresponding 1-pyrrolidinyloxy derivative R-100” and the “Efficacy in rat model of renal ischemia-reperfusion injury” value [3] was “Effective”. The “Efficacy in murine model of retinal ischemia-reperfusion injury” value [4] was “Effective”, the “Efficacy in rat model of myocardial ischemia-reperfusion injury” value [5] was “Effective” and the “Efficacy in minipig model of limb ischemia-reperfusion injury” value [6] was “Effective”. The “Efficacy in rat model of erectile dysfunction” value [7] was “Effective”.
